Measured values: patent US7192760B2 (priority 2000, dated 2007)
Read-outs that look alike come from different tables or passages of the source.

Tests used:
[1] = tested on: Brevibacterium lactofermentum KFCC-10680; experiment: α-Aminobutyric acid resistance: growth on minimal medium containing α-aminobutyric acid; assay type: cell-based; conditions: strain KFCC-10680, cultivation at 30° C. for 6 days
[2] = tested on: Brevibacterium lactofermentum CJJA22; experiment: as above; assay type: cell-based; conditions: strain printed CJJA21; α-aminobutyric acid 20 g/l; cultivation at 30° C. for 6 days
[3] = tested on: Brevibacterium lactofermentum KFCC-10680; conditions: strain KFCC-10680, cultivation at 30° C. for 6 days
[4] = tested on: Brevibacterium lactofermentum CJJA21; conditions: strain CJJA21; sodium azide 800 mg/l; cultivation at 30° C. for 6 days

| SMILES | growth ([1]; α-aminobutyric acid 5 g/l) | growth ([1]; α-aminobutyric acid 10 g/l) | growth ([1]; α-aminobutyric acid 15 g/l) | growth ([1]; α-aminobutyric acid 20 g/l) | growth [2] | growth ([3]; sodium azide 100 mg/l) | growth ([3]; sodium azide 200 mg/l) | growth ([3]; sodium azide 300 mg/l) | growth ([3]; sodium azide 500 mg/l) | growth ([3]; sodium azide 800 mg/l) | growth [4] |
| --- | --- | --- | --- | --- | --- | --- | --- | --- | --- | --- | --- |
| CCC(N)C(=O)O (racemic) [α-aminobutyric acid, D,L-α-amino-n-butyric acid] | + | − | − | − | − |  |  |  |  |  |  |
| [N-]=[N+]=[N-] [Sodium azide, sodium azide] |  |  |  |  |  | + | + | − | − | − | − |
